Consider seven compounds from US5461057A, “Hydro-ethano-indeno-pyridines” (priority 1994, dated 1995).

Like-named read-outs stand apart in the source and are kept apart here.

For data set [1], the system named is muricidal (mouse-killing) behavior. The experiment in a line: Effects on muricidal behavior in rats. In kind it is in vivo, rat. Particulars: for ED50: Rattus norvegicus, read-out: MUR ED50. The text has this: Blockade of muricidal (mouse-killing) behavior in rats is used as a measure of evaluating the anti-depressant activity of drugs, and the procedure for carrying out this test is set forth in Int. J. Neuro-pharmacal., 5, 405-411 (1966) are hereby incorporated by reference, and in PCT/US91/06705, filed 20 Sep. 1991, which is mentioned above.
(§1) The results for this test are given below as ED50 's in the units of mg/kg.
MUR refers to the test on the effects on muricidal behavior in rats;

Data set [2] relates to LOX human melanoma cell adhesion to human fibronectin. The experiment in a line: LOX melanoma cell adhesion to fibronectin. In kind it is cell-based. Conditions: for IC50 / inhibition at 10 µM / inhibition at 50 µM: Homo sapiens, LOX; for IC50: read-out: LOX FN IC50; for inhibition at 10 µM: read-out: % Inhibition at 10 μM; for inhibition at 50 µM: read-out: % Inhibition at 50 μM. Summed up:
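Compound added to fibronectin-coated (140 ng/well), BSA-blocked wells before LOX cells (1×10^5/well, detached with urea/EDTA). Cells adhered 1 h at 37 °C, then washed. Adherent cells quantified by calcein AM fluorescence (485/530 nm); IC50 for adhesion inhibition.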

The subject of another data set is metrazole. Description: Anti-metrazole test in mice. In kind it is in vivo, mouse. Conditions: for ED50: Mus musculus, read-out: MTZ ED50. On the procedure:
The anti-metrazole test in mice was carried out as described in Everett et al, J. Pharmacol. Exp. Therap. 81:402-407 (1944); which is hereby incorporated by reference.
The results for this test are given below as ED50's in the units of mg/kg.

In data set [3] the test system is discrete trial avoidance behavior. Description: Conditioned avoidance suppression in rats. In kind it is in vivo, rat. Particulars: for minimal effective dose: Rattus norvegicus, read-out: CAR minimum effective dose (MED). The text has this:
See Ann. N.Y. Acad. Sci. 66,740 (1957) which is hereby incorporated by reference. The procedure for carrying out this test is set forth in Int. J. Neuro-pharmacal., 5, 405-411 (1966) which is hereby incorporated by reference and in PCT/US91/06705, filed 20 Sep. 1991, which is mentioned above.
The results for this test are given below as minimum effecive doses (MED)in the units of mg/kg.
As used herein, CAR refers to the conditioned avoidance suppression test in rats;

Data set [4] deals with acetic acid-induced writhing. The experiment in a line: Acetic Acid Writhing Test in Mice. Particulars: for ED50: Mus musculus, po, read-out: WRITH ED50. In kind it is in vivo, mouse. The text has this: The blockade of writhing induced by the intraperitoneal injection of acetic acid is an established experimental animal model for the screening of antinociceptive drugs (drugs which prevent the appreciation or transmission of pain sensations).
The procedure for the Acetic Acid Writhing Test in Mice is set forth in Hendershot et al, J. Pharmacol. Exp. Therap. 125:237, (1959); Koster et al., Fed. Proc. 18:412, (1959); and international application PCT/US91/06705, filed 20 Sep. 1991, which are hereby incorporated by reference.
The results for this test are given below in the units of mg/kg which is also abbreviated in this specification as mpk. The results for this test are given as effective doses (ED50 's).

The next data set deals with TBZ-induced ptosis. The experiment in a line: Effects on tetrabenazine (TBZ)-induced ptosis in mice. In kind it is in vivo, mouse. Particulars: for TBZ ED50: p.o.; for ED50: Mus musculus, po.
Text: Clinically active antidepressant drugs are known to block TBZ-induced ptosis in mice (See Psychosomatic Medicine, Nodine and Moyer, Eds. Lea and Febiger, Philadelphia, 1962, pp 683-90, which is hereby incorporated by reference). Activity in this test is used to predict anti-depressant activity in man.
The procedure for the TBZ-Induced Ptosis Test in Mice is set forth in Psychosomatic Medicine, Nodine and Moyer, Eds. Lea and Febiger, which is hereby incorporated by reference and in PCT/US91/06705, filed 20 Sep. 1991, which is mentioned above.
as §1
TBZ refers to the test of effects on tetrabenazine induced ptosis in mice, p.o.;

Data set [5] can be described thus: Calcein cytotoxicity assay. Particulars: human, lox melanoma cells, calcein AM assay; for CC50 at 2 h: read-out: 2 Hr Tox LD50. In kind it is cell-based.
The next data set concerns pulmonary resistance. Description: Pulmonary Resistance in the Anesthetized Rat. In kind it is in vivo. Conditions: 0.5 mpk, i.v., mean of 5 animals, % decrease in pre-drug baseline resistance. Summed up: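 Dialurethane-anesthetized rats (400-500 g) with tracheal and esophageal catheters; air flow and tracheal/esophageal pressures used to derive pulmonary resistance. Compounds given i.v. to 5 animals each; values are mean % decrease from pre-drug baseline resistance.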

The test system of data set [6] is histamine-induced dyspnea. Description: Bronchodilator (in vivo) Guinea Pig Dyspnea. Particulars: oral, one hour before histamine challenge. In a few lines: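 Fasted, unanesthetized guinea pigs (250-350 g) received the test drug orally one hour before exposure to an aerosolized 0.1% histamine solution. Onset of dyspnea was recorded, and data were expressed as number tested over number survived.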

Data set [7] has as its system LOX human melanoma cell adhesion to polylysine. Description: LOX melanoma cell adhesion to polylysine. In kind it is cell-based. Conditions: read-out: Poly Lys IC50.
The next data set deals with ELAM-1 (Homo sapiens, UniProt P16581). The experiment in a line: cell-based. As to the method:
Cell adhesion to ELAM-1 was measured essentially as described previously (Pal et al., J. Biomed. Res. 2: 53, 1992). Undifferentiated HL-60 leukemia cells were prelabelled for 30 minutes with 1 μM calcein AM in DPBS without calcium or magnesium, and the cells were washed twice with the same medium before addition to 96-well plates containing monolayers of mouse L cells (5×10^4 cells/well) transfected with cDNA for the adhesion molecule ELAM-1. Adhesion was allowed to proceed for 30 minutes at room temperature before washing and quantitation of the remaining fluorescent HL-60 cells as described above.
ELAM-1 (E-selectin) is a member of the selectin class of adhesion molecules.

For data set [8], the system named is B16-F10 murine melanoma metastasis. Description: In vivo experimental metastasis. On the set-up: species or system mouse (C57/black6). Particulars: 250 mpk. As to the method:
C57/black6 female mice (6-7 weeks old) were randomized before any treatment into groups of 5 mice per treatment. Compounds of the invention were prepared as a fine suspension in 25% β-cyclodextran and administered i.p. in a volume of 0.2 ml per animal. Two hours after drug (or vehicle) injection, 0.2 ml of DPBS containing 1×10^5 B-16 F10 murine melanoma cells were injected i.v. into the tail vein. After 14 days, animals were sacrificed and lungs were removed. Metastatic lung colonies were counted by visual inspection.
*Pretreatment Time is the time between i.p. drug injection and i.v. tumor

Chain of ELAM-1 (P16581 22-610): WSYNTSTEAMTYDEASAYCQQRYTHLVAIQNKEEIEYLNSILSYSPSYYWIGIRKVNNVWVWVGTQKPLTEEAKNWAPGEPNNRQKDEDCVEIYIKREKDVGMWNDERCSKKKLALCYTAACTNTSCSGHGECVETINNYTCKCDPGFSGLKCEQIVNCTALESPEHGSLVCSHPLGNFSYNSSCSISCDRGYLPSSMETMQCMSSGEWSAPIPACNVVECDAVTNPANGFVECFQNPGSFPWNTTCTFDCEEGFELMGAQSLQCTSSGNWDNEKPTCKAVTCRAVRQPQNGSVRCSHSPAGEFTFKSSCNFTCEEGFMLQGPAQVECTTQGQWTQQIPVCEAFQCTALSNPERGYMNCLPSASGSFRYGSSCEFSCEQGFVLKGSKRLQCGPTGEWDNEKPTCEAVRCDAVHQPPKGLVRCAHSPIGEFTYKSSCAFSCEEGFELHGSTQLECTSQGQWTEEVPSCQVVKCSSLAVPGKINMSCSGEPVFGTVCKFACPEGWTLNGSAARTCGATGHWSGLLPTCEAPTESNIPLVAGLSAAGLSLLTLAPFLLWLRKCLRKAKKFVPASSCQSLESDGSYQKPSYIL

Broadly, the % Inhibition is the change of the read-out against control, counted positive when it falls. As to `CN1C2CCC1C1C(=C(c3ccccc3)c3ccccc31)C2` (stereo not shown) [U], in [1], the “MUR ED50” value stood at 14.1 mg/kg. Further, the “% Inhibition at 10 μM” value in [2] (10 μM) was -18.7%. In data set [2] (50 μM), the “% Inhibition at 50 μM” value is given as 21.0%. The “MTZ ED50” value in the data set on metrazole is recorded as above 30 mg/kg. Besides, in [3], the “CAR minimum effective dose (MED)” value is above 25 mg/kg. For the same compound, the “WRITH ED50” value in data set [4] (p.o.) was above 30 mg/kg. The “TBZ ED50” value with TBZ-induced ptosis came to 1.3 mg/kg.
As usually defined, the ED50 is the dose that gives a 50% effect, or the effect in half of the subjects. A word on the IC50: it is the point on the concentration scale where inhibition reaches its midpoint. As for `CN1C2CCC1C1C(=C(c3ccccc3)c3ccccc31)C2` (stereo not shown) [T], the CC50 at 2 h in data set [5] was 135 µM. For the same compound, the “Pulmonary Resistance in Rats, % Inhibition” value with pulmonary resistance came to 46%. Moreover, the median effective dose (ED50) in data set [1] is above 10 mg/kg; in the data set on metrazole, above 30 mg/kg; in data set [4], 17.3 mg/kg. Also, in [2] (10 μM), the “% Inhibition at 10 μM” value was 2.2%. In addition, the “% Inhibition at 50 μM” value in data set [2] (50 μM) was determined as 89.3%. Moreover, the IC50 in data set [2] (Table 4, 1 hour adhesion) is 19.5 µM; in data set [7] it was 115 µM. The minimal effective dose in data set [3] was above 25 mg/kg. Besides, the “TBZ ED50” value in the data set on TBZ-induced ptosis came to 5.7 mg/kg. For the same compound, the DYSP survivors in data set [6] (50 mg/kg) is on record as 0/3; in data set [6] (100 mg/kg) it was 2/3.
In general, inhibition refers to the relative decrease from the control value, in per cent. As for `CN1C2CCC1C1C(=C(c3ccc(Cl)cc3)c3cc(F)ccc31)C2` (stereo not shown) [Compound A], in [5], the CC50 at 2 h was 17.4 µM. Moreover, the CC50 at 6 h in [5] (6 hours, read-out: 6 Hr Tox LD50) was 5.9 µM. Moreover, the half-maximal inhibitory concentration (IC50) in data set [2] (1 h) amounted to 4.8 µM; at ELAM-1, 21.8 µM; in data set [7], 11.8 µM. In data set [2], the inhibition at 10 µM amounted to 81.1%. In addition, in data set [2], the inhibition at 50 µM was determined as 101%. In [6] (100 mg/kg), the DYSP survivors is given as 2/3.
As for `O=P1(N(CCCl)CCCl)NCCCO1` (stereo not shown) [Cytoxan, reference compound], the “effectiveness as positive control” value in [8] was “showed similar effectiveness”. In data set [8] (pretreatment time 30 min), the “% Inhibition of lung metastasis” value worked out at 77.8% and the “Number of Lung Melanoma Colonies” value was determined as 17.6 ± 4.2.
`COc1ccc(C2(O)c3ccccc3C3C4CCC(CC32)N4C)cc1` (stereo not shown) [PP]: the inhibition in vivo at 0.5 mg/kg in the data set on pulmonary resistance (Rattus norvegicus, iv, read-out: Pulmonary Resistance in Rats, % Inhibition) was 62%. Also, the median effective dose (ED50) in data set [1] was above 10 mg/kg; with metrazole, above 30 mg/kg; in [4], above 30 mg/kg; in the data set with TBZ-induced ptosis, above 30 mg/kg. Further, the inhibition at 10 µM in data set [2] (10 μM) stood at 4.9%. In data set [2] (50 μM), the inhibition at 50 µM was determined as 21.9%. Also, the minimal effective dose in [3] is above 25 mg/kg. Further, the responders at 50 mg/kg in data set [6] (Cavia porcellus, 1 h, 50 mg/kg, read-out: DYSP survivors (converted)) was 0%.
Regarding `COc1ccc2c(c1)C(c1ccccc1)C1=C2C2CCC(C1)N2C` (stereo not shown) [EE], the ED50 (in the data set with metrazole; in data set [4]; in the data set with TBZ-induced ptosis) was above 30 mg/kg each time. The minimal effective dose in data set [3] is above 25 mg/kg.
With `COc1ccc2c(c1)C(O)(c1ccccc1)C1CC3CCC(C21)N3C` (stereo not shown) [DDD], the ED50 in data set [1] was 3.8 mg/kg; in the data set on metrazole, above 30 mg/kg; in data set [4] it was above 30 mg/kg; in the data set with TBZ-induced ptosis, above 30 mg/kg. Also, the minimal effective dose in data set [3] is above 25 mg/kg.
